The values below come from ChEMBL document CHEMBL1201862, “PubChem BioAssay data set” (2004).

Molecules are shown by their SMILES.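 Five concentrations, 48 hours, 96-well plates. GI50 is the concentration that inhibits growth by half.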 The source made the active and inactive calls. No stated cut-off is given here; in the data, active = GI50 up to about 1.1 µM and inactive = higher.

Among the test systems are RPMI-8226; PC-3; T47D; HCT-15; OVCAR-4; HCC 2998; SK-OV-3; UACC-62; Malme-3M; SF-295; MOLT-4; HT-29; DU-145; CCRF-CEM; KM12; COLO 205; SN12C; SF-539; MCF7.
Common to all, as to experiment: NCI-60 cell line screen, 48 h

`COc1ccc2c(c1)CC1Cc3cc(OC)c(OC)cc3CN1CC2` (configuration not stated): the GI50 was 25.8 µM (inactive) with RPMI-8226; 37.4 µM (inactive) in the assay on PC-3; 23.9 µM (inactive) in the assay on T47D; 44.7 µM in the assay with HCT-15; 38.5 µM (inactive) with OVCAR-4; 33.4 µM (inactive) with HCC 2998. In addition, the GI50 with SK-OV-3 was 71.6 µM (inactive); with UACC-62, 25.2 µM (inactive); in the assay with Malme-3M, 40.2 µM (inactive); in the assay with SF-295 it was 32.7 µM (inactive); with MOLT-4 it was 24 µM (inactive); in the assay with HT-29, 10.1 µM (inactive). The GI50 is 36.6 µM (inactive) in the assay on DU-145, 19.5 µM (inactive) with CCRF-CEM, 34.7 µM (inactive) with KM12 and 23.7 µM (inactive) in the assay with COLO 205.
For the compound `O=C(O)c1ccccc1C1c2ccc(Cl)cc2Oc2cc(Cl)ccc21`, the GI50 is > 100 µM (inactive) in the assay with RPMI-8226; > 100 µM (inactive) with SN12C; > 100 µM (inactive) in the assay with SF-539; over 100 µM in the assay with HCT-15; > 100 µM (inactive) in the assay on OVCAR-4; > 100 µM (inactive) in the assay on HCC 2998. Further, the GI50 in the assay with SK-OV-3, in the assay with UACC-62, in the assay with Malme-3M, with SF-295, in the assay with MOLT-4 and in the assay on HT-29 was > 100 µM (inactive) in each case. Moreover, the GI50 in the assay on CCRF-CEM, with KM12 and with COLO 205 was > 100 µM (inactive) each time.
Regarding `O=C1C(=O)N(c2ccc(Cl)cc2Cl)C(=O)C(=O)C1c1nc2ccccc2s1`, the GI50 is 48 µM (inactive) with RPMI-8226; > 100 µM (inactive) in the assay with SN12C; > 100 µM (inactive) with SF-539; over 89.1 µM in the assay with HCT-15; > 78.5 µM (inactive) in the assay with OVCAR-4; > 100 µM (inactive) with HCC 2998. Moreover, the GI50 is > 100 µM (inactive) in the assay with SK-OV-3; 78.3 µM (inactive) in the assay on UACC-62; > 100 µM (inactive) in the assay on Malme-3M; > 100 µM (inactive) in the assay on SF-295; 23.3 µM (inactive) in the assay on MOLT-4; > 82.2 µM (inactive) in the assay with HT-29. In addition, the GI50 with CCRF-CEM is 25 µM (inactive); in the assay on KM12 it was > 100 µM (inactive); in the assay with COLO 205, > 100 µM (inactive).
With `COc1cc(N(CCC#N)CCC#N)ccc1C(/N=N/c1ccccc1C)=N\NC(=O)c1ccc(C)cc1`, the GI50 was 44.1 µM (inactive) with SN12C; 59.3 µM (inactive) in the assay with PC-3; 38.2 µM (inactive) in the assay on T47D; over 100 µM with HCT-15; 59.8 µM (inactive) in the assay with OVCAR-4; 85.3 µM (inactive) with HCC 2998. Besides, the GI50 in the assay on SK-OV-3 was > 100 µM (inactive); with UACC-62, 43.4 µM (inactive); in the assay on Malme-3M, 34.7 µM (inactive); in the assay with SF-295, > 100 µM (inactive); with MOLT-4, 28 µM (inactive); in the assay on HT-29 it was 85.3 µM (inactive). The GI50 is > 100 µM (inactive) in the assay with DU-145, 15.2 µM (inactive) with CCRF-CEM, 49.1 µM (inactive) in the assay on KM12 and 33.7 µM (inactive) with COLO 205.
For the compound `[N-]=[N+]=CC(=O)OCCCCl`, the GI50 was > 100 µM (inactive) in the assay on RPMI-8226; > 100 µM (inactive) in the assay with SN12C; > 100 µM (inactive) in the assay on PC-3; > 100 µM (inactive) in the assay with MCF7; over 100 µM in the assay with HCT-15; > 100 µM (inactive) in the assay on OVCAR-4. Besides, the GI50 in the assay with HCC 2998, in the assay with SK-OV-3, with UACC-62, in the assay with Malme-3M, in the assay on SF-295 and with MOLT-4 was > 100 µM (inactive) each time. The GI50 with HT-29, in the assay on DU-145, in the assay with CCRF-CEM, with KM12 and in the assay with COLO 205 was > 100 µM (inactive) each time.
In the case of `COc1c2nc(CCl)n(C)c(=O)c2c(OC)c2c(=O)n(C)c(CCl)nc12`, the GI50 in the assay on RPMI-8226 is 0.303 µM (active); in the assay on SN12C, 1.69 µM (inactive); with PC-3, 1.29 µM (inactive); with MCF7, 0.48 µM (active); with SF-539 it was 3.44 µM (inactive); in the assay with HCT-15 it was 1.48 µM. Besides, the GI50 in the assay with OVCAR-4 is > 100 µM (inactive); in the assay with HCC 2998 it was 1.34 µM (inactive); with Malme-3M, 1.76 µM (inactive); with SF-295 it was 1.84 µM (inactive); with MOLT-4, 0.294 µM (active); in the assay on HT-29, 1.3 µM (inactive). Also, the GI50 is 3.4 µM (inactive) with DU-145, 0.354 µM (active) with CCRF-CEM, 1.22 µM (inactive) in the assay with KM12 and 1.41 µM (inactive) in the assay on COLO 205.
In the case of `Cc1cc(C)c(C(=O)/C=C/c2ccccc2)c(C)c1`, the GI50 with RPMI-8226 is 29.8 µM (inactive); in the assay on SN12C it was 14.4 µM (inactive); in the assay on SF-539, > 10 µM (inactive); in the assay on HCT-15, 16.5 µM; in the assay on OVCAR-4, 22.8 µM (inactive); in the assay with SK-OV-3, 64.6 µM (inactive). The GI50 with UACC-62 was 31.8 µM (inactive); with Malme-3M it was 8.02 µM (inactive); in the assay with SF-295, 21.8 µM (inactive); in the assay on MOLT-4, 24.9 µM (inactive); with HT-29, 30.3 µM (inactive); in the assay on CCRF-CEM, 25.4 µM (inactive). In addition, the GI50 is 35.2 µM (inactive) with KM12 and 29 µM (inactive) in the assay with COLO 205.
As to `COc1cc(C2C(C#N)=C(N)OC3=C2CCS(=O)(=O)c2ccc(C)cc23)cc(OC)c1OC` (configuration not stated), the GI50 with RPMI-8226 is > 100 µM (inactive); in the assay on SN12C it was > 100 µM (inactive); in the assay on PC-3 it was > 100 µM (inactive); with T47D, > 100 µM (inactive); in the assay with HCT-15 it was over 100 µM; with OVCAR-4 it was > 100 µM (inactive). In addition, the GI50 in the assay with HCC 2998, in the assay on UACC-62, in the assay on Malme-3M, with HT-29, with DU-145 and in the assay with CCRF-CEM was > 100 µM (inactive) each time. Also, the GI50 in the assay with KM12 and in the assay with COLO 205 was > 100 µM (inactive) each time.
For `O=C1/C(=C/c2ccco2)NC(=S)N1CN1CCOCC1`, the GI50 is > 100 µM (inactive) in the assay with RPMI-8226; > 100 µM (inactive) with SN12C; > 100 µM (inactive) in the assay on PC-3; > 100 µM (inactive) in the assay with MCF7; over 100 µM in the assay on HCT-15; > 100 µM (inactive) in the assay on OVCAR-4. Also, the GI50 with SK-OV-3, with UACC-62, in the assay with SF-295, in the assay on MOLT-4, with HT-29 and in the assay on DU-145 was > 100 µM (inactive) each time. Besides, the GI50 in the assay with CCRF-CEM, with KM12 and in the assay on COLO 205 was > 100 µM (inactive) throughout.
For the compound `CSC1NC(c2ccc(Cl)cc2)=C(C#N)C(=O)N1C1OCC(OC(C)=O)C(OC(C)=O)C1OC(C)=O` (configuration not stated), the GI50 was > 100 µM (inactive) with RPMI-8226; 45.1 µM (inactive) with SN12C; > 100 µM (inactive) with PC-3; > 100 µM (inactive) in the assay on MCF7; 67.3 µM (inactive) in the assay on SF-539; 62.1 µM in the assay on HCT-15. The GI50 in the assay on OVCAR-4, in the assay on HCC 2998, with SK-OV-3, with UACC-62, with Malme-3M and with SF-295 was > 100 µM (inactive) in each case. Besides, the GI50 in the assay on MOLT-4 was 8.24 µM (inactive); with HT-29 it was > 100 µM (inactive); in the assay with DU-145, > 100 µM (inactive); with KM12, > 100 µM (inactive); with COLO 205, > 100 µM (inactive).
As for `CCn1c(-c2ccc(C)cc2)cs/c1=N\C(P(=O)(O)O)P(=O)(O)O`, the GI50 is > 100 µM (inactive) in the assay on RPMI-8226; > 100 µM (inactive) with PC-3; > 100 µM (inactive) with MCF7; > 100 µM (inactive) in the assay with SF-539; over 100 µM in the assay on HCT-15; > 100 µM (inactive) with HCC 2998. Further, the GI50 in the assay with SK-OV-3, in the assay with UACC-62, with Malme-3M, in the assay with SF-295, in the assay with MOLT-4 and in the assay on HT-29 was > 100 µM (inactive) each time. Further, the GI50 with DU-145, in the assay with CCRF-CEM, in the assay on KM12 and in the assay on COLO 205 was > 100 µM (inactive) in each case.
On to `Cn1c(S)nc2c(Cl)cc(Cl)cc2c1=O`, for which the GI50 in the assay on SN12C was > 100 µM (inactive); in the assay on PC-3 it was > 100 µM (inactive); in the assay with MCF7, 71.4 µM (inactive); with SF-539, 42.8 µM (inactive); with HCT-15, over 100 µM; in the assay on OVCAR-4, > 100 µM (inactive). Besides, the GI50 was > 100 µM (inactive) in the assay with HCC 2998; 74 µM (inactive) in the assay with SK-OV-3; > 100 µM (inactive) in the assay on UACC-62; > 100 µM (inactive) with SF-295; 18.7 µM (inactive) in the assay with MOLT-4; > 100 µM (inactive) with DU-145. Also, the GI50 was 24.8 µM (inactive) in the assay with CCRF-CEM, > 100 µM (inactive) in the assay on KM12 and > 100 µM (inactive) with COLO 205.
Consider `O=C1CCCc2ccc3c(c21)CC1(Cc2ccccc2C1)C3`, for which the GI50 with RPMI-8226 is 16.9 µM (inactive); in the assay on SN12C it was 26.1 µM (inactive); with PC-3, 98.4 µM (inactive); in the assay on MCF7, 57.5 µM (inactive); with SF-539, 31.6 µM (inactive); in the assay on T47D it was 44.2 µM (inactive). Also, the GI50 with HCT-15 was 41.7 µM; with OVCAR-4 it was 17.2 µM (inactive); in the assay with HCC 2998 it was 41.5 µM (inactive); with SK-OV-3 it was 53.5 µM (inactive); with UACC-62, 26.1 µM (inactive); in the assay on Malme-3M it was 33.2 µM (inactive). Further, the GI50 with SF-295 is 24.2 µM (inactive); in the assay on HT-29, 17.5 µM (inactive); in the assay with KM12, 38.9 µM (inactive); in the assay with COLO 205 it was 17.2 µM (inactive).
